Assay results taken from US6358736B1, “Method for increasing the antigen presenting ability of leukemia cells” (The United States of America as represented by the …, priority 1995, dated 2002).

Columns and labels:
[1] = tested on: monocyte subpopulation within PBMC; assay: FACS analysis of monocyte subpopulation in unfractionated PBMC; format: cell-based, human; conditions: A23187 750 ng/ml, 40 hours
Method: (§1) PBMC were prepared by leukapheresis and Ficoll-Hypaque and placed in culture. Since the cells were never elutriated and no adherence step was performed, these cultures deliberately included large numbers of T, B, and NK lymphocytes as well as monocytes. The medium was our standard RPMI 10% human AB serum with antibiotics including amphotericin B. Cells were either untreated or treated for 40 hours with calcium ionophore A23187 750 ng/ml. Cells were then harvested and analyzed by FACS. Cells were stained with FITC conjugated anti-CD3, anti-CD40, anti-CD57, anti-CD 14, or the combination; in addition cells were stained with PE conjugated control antibodies, anti-B7.1, anti-B7.2, etc. In this way the effect of calcium ionophore treatment on each parameter could be clearly delineated.

[2] = tested on: monocytes; assay: Calcium-chelation luminescence spectrophotometry of intracellular calcium flux; format: cell-based, human; conditions: indol-loaded monocytes; calcium ionophore 180-750 ng/ml
Method: Calcium-chelation luminescence spectrophotometry was utilized to measure intracellular calcium fluxes in monocytes. Monoytes were incubated with 5 uM/ml indol, a calcium chelating agent which emits fluorescence at different wavelengths (405 or 480 nm) depending on whether or not it is bound to cycloplasmic calcium. Increased calcium mobilization causes relative shifts in emission from one wavelength to the other. After 30 minute incubation with indol, monocytes were washed, pulsed with a variety of agents such as calcium ionophore, virus, f-MET-LEU-PHE, or LPS. To measure calcium fluxes at subsequent time intervals, cells were stimulated with a 355 nm wavelength beam, and fluorescence emission measured at 405 and 480 nm.

[3] = tested on: WEHI-3; assay: Costimulatory molecule expression on mouse myeloid leukemia line; format: cell-based; conditions: following calcium mobilization
Text: Myeloid leukemia cell lines display marked upregulation of molecules linked to antigen-presentation and acquire increased T cell sensitizing capacity following calcium mobilization with either calcium ionophore or thapsigargin.

[4] = tested on: T lymphocyte subpopulation within the PBMC; assay: FACS analysis of T lymphocyte subpopulation in unfractionated PBMC; format: cell-based, human; conditions: A23187 750 mg/ml, 40 hours
Method: as §1, with “cultures” for “cultures deliberately”, “[…].” for “ng/ml.”, “anti-CD14,” for “anti-CD 14,”

[5] = tested on: HUVEC; assay: FACS analysis of umbilical vein endothelial cells; format: cell-based, human
Method: Endothelial cells were previously isolated from human umbilical vein (HUVEC), then cultured in IMEM with 20% fetal calf serum and rhEGF ([…]). The cells in this experiment had undergone four previous passages to confluence and were trypsinized and reseeded in T25 flasks. After four days culture to reachieve confluence individual flasks were treated with several concentrations of calcium ionophore (180, 375 and 750 ng/ml). Two days later, cells were harvested by trypsinization and analyzed.

[6] = tested on: HL-60 cells cocultured with allogeneic naive T cells; assay: T cell allosensitization by irradiated treated HL-60 cells (3H-TdR); format: cell-based, human; conditions: A23187 180 ng/ml with or without rhGM-CSF 20 ng/ml and IFN-gamma 1000 u/ml, three days
Method: Fresh allogeneic naive (CD45R0 negative) T cells were prepared and cocultured with graded numbers of irradiated (3000R) HL-60 cells treated under the above-described conditions. Four days later the cultures were pulsed with ^3H-TdR (tritiated thymidine) and harvested 18 hours later.
Cells were harvested after three days, irradiated (3000R), then FACS analyzed or cocultured in graded numbers with freshly prepared naive (CD45RO negative) T lymphocytes. Allosensitization was assessed by pulsing at day 4 with ^3H-TdR and harvesting 18 hours later.

[7] = tested on: bone marrow-derived CD34pos cells; assay: FACS and morphologic analysis of cultured bone marrow-derived CD34pos cells; format: cell-based, human
Method: Bone marrow-derived highly purified CD34^pos cells were cultured for six days in medium containing 20% fetal calf serum, rhSCF, rhGM-CSF, and rhTNF-alpha. […] Cells were centrifuged and replated in 24 well plates in fresh medium containing rhGM-CSF, and rhTNF-alpha but not rhSCF. In addition, individual wells were treated with varied doses of ionophore A23187. Wells were harvested 1, 2, and 6 days subsequently, subjected to FACS analysis or studied morphologically for DC characteristics utilizing polylysine-coated glass slides and Nomarski optics.

[8] = tested on: human peripheral blood monocytes; assay: FACS analysis of cell surface markers on cultured peripheral blood monocytes; format: cell-based
[9] = as E78, vs expression prior to culture
[10] = calcium-free RPMI and dialyzed serum
[11] = within 18 hours of treatment initiation

CNc1ccc2oc(C[C@H]3O[C@@]4(CC[C@H]3C)O[C@H]([C@H](C)C(=O)c3ccc[nH]3)[C@H](C)C[C@H]4C)nc2c1C(=O)O [A23187]
CD14 expression [1]: downregulation of CD14 to a background level | increase of B7.1 expression [1]: seven | increase of B7.2 expression [1]: 10 fold | increase of CD40 expression [1]: 7 fold | increase of CD83 expression [1]: 11 fold | increase of HLA-DR expression [1]: 9 fold | increase of ICAM-1 expression [1]: 4.5 fold | intracellular calcium flux / mobilization [2]: marked sustained monocyte mobilization | costimulatory molecule expression [3]: markedly increased costimulatory molecule expression | B7.2 upregulation over culture without ionophore [4]: 10 fold | CD40 upregulation [4]: 4 fold | HLA-DR upregulation [4]: 6 fold | ICAM-1 upregulation [4]: 3.3 fold | ICAM-1 and CD40 expression ([5]; 375 and 750 ng/ml, two days): upregulated ICAM-1 and CD40 expression | HLA-ABC expression ([5]; two days): unchanged | B7.1, B7.2, HLA-DR and CD83 expression ([5]; with or without ionophore treatment): failed to express detectable B7.1, B7.2, HLA-DR or CD83 | allostimulation of naive T cells [6]: significantly allostimulatory | increase in purity of cells with activated myeloid dendritic cell phenotype at final harvest [7]: approximately six | CD14 expression ([7]; 375-750 ng/ml, within 20 hours): marked CD14 downregulation | cells with marked upregulation of B7.1, B7.2, ICAM-1, CD83, CD40 and CD1a ([7]; 375-750 ng/ml, within 20 hours): > 85 % of cells | increase in yield of cells with activated myeloid dendritic cell phenotype vs wells without ionophore ([7]; absolute numbers of cells recovered): approximately three | optimal concentration for dendritic cell immunophenotype ([7]; within 20 hours of treatment): 375 to 750 ng/mL | morphology ([7]; within 40 hours of treatment): virtually all cells manifested dendritiform morphology | optimal concentration for DC differentiation of monocytes ([8]; 10% FCS): 180 to 375 ng/mL | CD14 expression downregulated ([8]; 20 hours, 10% AB serum, amphotericin B omitted, low endotoxin, A23187 750 ng/ml or cytokines (rhIL4 1000 u/ml; +rhGM-CSF 100 ng/ml; +rhTNF-alpha 100 u/ml)): 90% | surface marker expression in purified monocyte and DC cultures ([8]; A23187 750 ng/ml, 40 hours): upregulation of B7.1, B7.2, ICAM-1., HLA-DR, HLA-ABC, CD40, and CD83 | surface marker expression of purified (>98%) CD14pos monocytes vs prepurified fractions ([8]; A23187 750 ng/ml, 40 hours): downregulated CD14, and upregulated B7.1, B7.2, ICAM-1, HLA-DR, HLA-ABC, CD40 and CD83 equivalently | activation and dendritic cell phenotypic conversion of pooled monocyte plus DC fractions ([8]; added at the beginning of a 24-48 hr culture period): uniform activation and dendritic cell phenotypic conversion | B7.1 expression increase [8, 9]: 14 fold | B7.2 expression increase [8, 9]: 7.5 fold | CD83 expression increase [8, 9]: 8.7 fold | HLA-ABC expression increase [8, 9]: 3.0 fold | HLA-DQ expression increase [8, 9]: 3.4 fold | HLA-DR increase [8, 9]: 2.9 fold | suppression of ionophore-induced B7.1 upregulation [8, 10]: 100% | suppression of ionophore-induced CD14 downregulation [8, 10]: 53% | optimal concentration for DC differentiation of monocytes ([8]; media with 5% AB serum): 375 to 750 ng/mL | CD40 expression ([8]; more uniform by 40 hours of treatment): Modest upregulation of CD40 | optimal concentration for DC differentiation of monocytes ([8]; serum free media): 45 to 90 ng/mL | morphology by electron microscopy ([8]; within 20-40 hours of treatment): markedly increased endoplasmic reticulum, lysosomal and Golgi content | B7.1 (CD80) expression [8, 11]: Variable levels of de novo expression of B7.1 (CD80) | B7.2 (CD86) expression [8, 11]: marked upregulation of B7.2 (CD86) | CD83 expression [8, 11]: de novo and essentially uniform expression | cell surface CD14 expression [8, 11]: marked downregulation of cell surface CD14
